Assay results published in ChEMBL document CHEMBL1201862, “PubChem BioAssay data set” (2004).
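Results reflect a 48-hour exposure of cells in 96-well plates to compound at five concentrations. GI50 marks 50% less growth.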 Active and inactive are the calls of the source. No stated cut-off is given here; in the data, active = GI50 up to about 1.1 µM and inactive = higher. Numbered stars: 1 amine (or outer) side, 2 acyl side, 3 side chain; on linkers, the order of the positions; unused ones are H or OH. Bridge positions count the residues as written; N and C are the ends. Square brackets hold non-standard residues; d marks the D form. Peptide text beside a SMILES is read from it. I, II: the chains in the order shown. Actinocin(9to1) = Cc1c2oc3c(C)ccc(C(=O)[*:1])c3nc-2c(C(=O)[*:2])c(N)c1=O; X48 = O=C1CC(C(=O)[*:2])N([*:1])C1; NMeV = CN[CH](C(=O)O)C(C)C; Sar = CNCC(=O)O

Legend:
Test in all cases: NCI anticancer screen, dose series, 48 h
ACHN = tested on: ACHN
COLO 205 = tested on: COLO 205
HCC 2998 = tested on: HCC 2998
HL-60 = tested on: HL-60
HOP-62 = tested on: HOP-62
IGROV-1 = tested on: IGROV-1
OVCAR-3 = tested on: OVCAR-3
OVCAR-5 = tested on: OVCAR-5
RPMI-8226 = tested on: RPMI-8226
SF-295 = tested on: SF-295
SF-539 = tested on: SF-539
SK-MEL-28 = tested on: SK-MEL-28
SK-OV-3 = tested on: SK-OV-3
SR = tested on: SR
SW-620 = tested on: SW-620
TK-10 = tested on: TK-10
U-251 = tested on: U-251
UO-31 = tested on: UO-31
SNB-75 = tested on: SNB-75
UACC-62 = tested on: UACC-62

SMILES | GI50 (ACHN) | GI50 (COLO 205) | GI50 (HCC 2998) | GI50 (HL-60) | GI50 (HOP-62) | GI50 (IGROV-1) | GI50 (OVCAR-3) | GI50 (OVCAR-5) | GI50 (RPMI-8226) | GI50 (SF-295) | GI50 (SF-539) | GI50 (SK-MEL-28) | GI50 (SK-OV-3) | GI50 (SR) | GI50 (SW-620) | GI50 (TK-10) | GI50 (U-251) | GI50 (UO-31) | GI50 (SNB-75) | GI50 (UACC-62)
Cc1c2oc3c(C)ccc(C(=O)NC4C(=O)NC(C(C)C)C(=O)N5CC(=O)CC5C(=O)N(C)CC(=O)N(C)C(C(C)C)C(=O)OC4C)c3nc-2c(C(=O)NC2C(=O)NC(C(C)C)C(=O)N3CC(=O)CC3C(=O)N(C)CC(=O)N(C)C(C(C)C)C(=O)OC2C)c(N)c1=O (stereo unspecified) (I: TV[X48][Sar][NMeV] / II: TV[X48][Sar][NMeV]; ester I:1-I:C, II:1-II:C; linker I:N-II:N via Actinocin(9to1); configuration not given here) | > 1 µM (active) | > 1 µM (active) | > 1 µM (active) | > 1 µM (active) | > 1 µM (active) | > 1 µM (active) | > 1 µM (active) | > 1 µM (active) | > 1 µM (active) | > 1 µM (active) | > 1 µM (active) | > 1 µM (active) | > 1 µM (active) | 0.948 µM (active) | > 1 µM (active) | > 1 µM (active) | > 1 µM (active) | > 1 µM (active) |  | 
CC(C)(C)OC(=O)N(O)CCCn1cnc2c(N)ncnc21 | > 100 µM (inactive) | > 100 µM (inactive) | > 100 µM (inactive) |  | > 100 µM (inactive) | > 100 µM (inactive) | > 100 µM (inactive) | > 100 µM (inactive) | > 100 µM (inactive) | > 100 µM (inactive) | > 100 µM (inactive) | > 100 µM (inactive) | > 100 µM (inactive) | > 100 µM (inactive) | > 100 µM (inactive) | > 100 µM (inactive) | > 100 µM (inactive) | > 100 µM (inactive) | > 100 µM (inactive) | > 100 µM (inactive)
CCN(CC)C(=O)Cn1c2c(c3ccccc31)CCCC2 | 65.2 µM (inactive) | > 100 µM (inactive) | > 100 µM (inactive) | 45.2 µM (inactive) | > 100 µM (inactive) | > 100 µM (inactive) | > 10 µM (inactive) | > 100 µM (inactive) | 56.8 µM (inactive) | 49.8 µM (inactive) | 47.2 µM (inactive) | > 100 µM (inactive) | > 100 µM (inactive) | 49.9 µM (inactive) | > 100 µM (inactive) | > 100 µM (inactive) |  | 23.2 µM (inactive) |  | 99.8 µM (inactive)
COc1ccc([C@H]2[C@H](C)C3=Nc4ccccc4CN32)cc1 | 86.9 µM (inactive) | 45.1 µM (inactive) | 41.9 µM (inactive) | 29.9 µM (inactive) | > 100 µM (inactive) | 63.7 µM (inactive) | > 100 µM (inactive) | > 100 µM (inactive) | 33.7 µM (inactive) | 49.4 µM (inactive) | 39.3 µM (inactive) | 33.2 µM (inactive) |  | 36.8 µM (inactive) | 39.9 µM (inactive) | > 100 µM (inactive) | 51.5 µM (inactive) | > 100 µM (inactive) |  | 57.5 µM (inactive)
O=C(c1ccccc1)[C@H]1Nc2ccc(Cl)cc2[C@H]2c3ccccc3O[C@H]21 | 15.2 µM (inactive) | 18.7 µM (inactive) | 16.8 µM (inactive) |  | 18.1 µM (inactive) | 17.7 µM (inactive) | 13.1 µM (inactive) | 16 µM (inactive) | 27 µM (inactive) | 15.5 µM (inactive) | 15 µM (inactive) | 12.3 µM (inactive) |  | 16.5 µM (inactive) | 16.5 µM (inactive) | 16.7 µM (inactive) | 15.6 µM (inactive) | 5.27 µM (inactive) | 12.4 µM (inactive) | 13.6 µM (inactive)
CCC1CCC2CCCC(C)N12 (stereo unspecified) | > 100 µM (inactive) | > 100 µM (inactive) | > 100 µM (inactive) | > 100 µM (inactive) | > 100 µM (inactive) | > 100 µM (inactive) | > 100 µM (inactive) |  | > 100 µM (inactive) | > 100 µM (inactive) | > 100 µM (inactive) | > 100 µM (inactive) |  | > 100 µM (inactive) | > 100 µM (inactive) | > 100 µM (inactive) | > 100 µM (inactive) | > 100 µM (inactive) | > 100 µM (inactive) | > 100 µM (inactive)
Cc1nc2c(O)cc3c4c([nH]c3c2nc1C)C(=O)CCC4 | 5.45 µM (inactive) | 2.26 µM (inactive) | 1.71 µM (inactive) | 3.72 µM (inactive) | 5.89 µM (inactive) |  | 2.61 µM (inactive) | 4.24 µM (inactive) | 2.24 µM (inactive) | 5.08 µM (inactive) | 2.85 µM (inactive) | 2.8 µM (inactive) | 3.76 µM (inactive) | 2.36 µM (inactive) | 4.22 µM (inactive) | 3.4 µM (inactive) | 2.16 µM (inactive) | 14.3 µM (inactive) |  | 3.66 µM (inactive)
CC(C)/C=C1\CCC(CN2CCCC2)C1=O (stereo unspecified) | 18.2 µM (inactive) | 7.05 µM (inactive) | 19.5 µM (inactive) | 3.51 µM (inactive) | > 87.5 µM (inactive) | 25.7 µM (inactive) | 17.4 µM (inactive) | 20 µM (inactive) | 0.472 µM (active) | 42.6 µM (inactive) | 18.7 µM (inactive) | 17.5 µM (inactive) | > 100 µM (inactive) | 2.82 µM (inactive) | 2.44 µM (inactive) | 10.7 µM (inactive) | 14.6 µM (inactive) | 18.5 µM (inactive) |  | 20.6 µM (inactive)
COc1cc(Cc2cnc(N)nc2N)cc(OC)c1OCCCNc1ccc([N+](=O)[O-])cc1 | 18 µM (inactive) | 12.2 µM (inactive) | 14.5 µM (inactive) |  | 13.6 µM (inactive) | 12.5 µM (inactive) | 14.5 µM (inactive) | 19 µM (inactive) |  |  | 12.7 µM (inactive) | 13.9 µM (inactive) | 31.5 µM (inactive) | 4.68 µM (inactive) | 15.1 µM (inactive) | 14.3 µM (inactive) | 13.7 µM (inactive) | 12.4 µM (inactive) | 16.2 µM (inactive) | 12.9 µM (inactive)
CC(=O)OC[C@@H](OC(C)=O)[C@H](OC(C)=O)[C@@H]1OC(C)(C)O[C@@H]1C1SCCCS1 | > 100 µM (inactive) | > 100 µM (inactive) | > 100 µM (inactive) |  | > 100 µM (inactive) |  | > 100 µM (inactive) | > 100 µM (inactive) | > 100 µM (inactive) | > 100 µM (inactive) | > 100 µM (inactive) | > 100 µM (inactive) | > 100 µM (inactive) | > 100 µM (inactive) | > 100 µM (inactive) | > 100 µM (inactive) | > 100 µM (inactive) | > 100 µM (inactive) | > 100 µM (inactive) | > 100 µM (inactive)
O=C1CC[C@@H](NC(=O)Cc2ccccc2)C(=O)N1 | > 100 µM (inactive) | > 100 µM (inactive) | > 100 µM (inactive) |  | > 100 µM (inactive) | > 100 µM (inactive) | > 100 µM (inactive) | > 100 µM (inactive) | > 100 µM (inactive) | > 100 µM (inactive) | > 100 µM (inactive) | > 100 µM (inactive) | > 100 µM (inactive) | > 100 µM (inactive) | > 100 µM (inactive) | > 100 µM (inactive) | > 100 µM (inactive) | > 100 µM (inactive) | > 100 µM (inactive) | > 100 µM (inactive)
COc1ccc(OC)c([N+](=O)[O-])c1-c1nc2sccn2c1/C=N/N=C(N)N | > 100 µM (inactive) | 29 µM (inactive) | 30.4 µM (inactive) | 79.6 µM (inactive) | > 100 µM (inactive) | 91.6 µM (inactive) | 58.1 µM (inactive) | > 100 µM (inactive) | 33.5 µM (inactive) | > 100 µM (inactive) | > 100 µM (inactive) | 17.7 µM (inactive) | 61.7 µM (inactive) | 30.6 µM (inactive) | 93.3 µM (inactive) | 51.4 µM (inactive) | 41.1 µM (inactive) | > 100 µM (inactive) |  | 91.8 µM (inactive)
COc1ccc(/N=N/c2ccc3oc(=O)c(C(=O)Nc4ccc(Cl)cc4)cc3c2)cc1 | > 10 µM (inactive) | > 10 µM (inactive) | > 10 µM (inactive) |  | > 10 µM (inactive) | 3.52 µM (inactive) | 7.28 µM (inactive) | > 10 µM (inactive) | > 10 µM (inactive) | > 10 µM (inactive) | 5.18 µM (inactive) | > 10 µM (inactive) | > 10 µM (inactive) | 2.38 µM (inactive) | 6.97 µM (inactive) | > 10 µM (inactive) | 5.4 µM (inactive) | 2.24 µM (inactive) | > 10 µM (inactive) | 
O=C(NCCn1ccnn1)Nc1ccccc1 | > 100 µM (inactive) | > 100 µM (inactive) | > 100 µM (inactive) | > 100 µM (inactive) | > 100 µM (inactive) | > 100 µM (inactive) |  | > 100 µM (inactive) | > 100 µM (inactive) | > 100 µM (inactive) |  | > 100 µM (inactive) |  | > 100 µM (inactive) | > 100 µM (inactive) | > 100 µM (inactive) | > 100 µM (inactive) |  | > 100 µM (inactive) | 
Brc1ccc(C2SCc3nc4ccccc4n32)cc1 (stereo unspecified) | 8.2 µM (inactive) | 12.7 µM (inactive) |  | 3.19 µM (inactive) | 7.57 µM (inactive) | 10.3 µM (inactive) | 4.83 µM (inactive) | 5.4 µM (inactive) | 5.08 µM (inactive) | 11.5 µM (inactive) | 18.5 µM (inactive) | 4.72 µM (inactive) | 16.7 µM (inactive) | 7.6 µM (inactive) | 13.3 µM (inactive) | 13.8 µM (inactive) | 12 µM (inactive) | 11 µM (inactive) | < 0.01 µM (active) | 6.68 µM (inactive)
